Data published in paper PMC12280126, “Potent β-lactam-based tyrosyl-DNA phosphodiesterase 1 inhibitors identified by a virtual screen” (Scientific Reports, 2025).
Where “and” joins values, the source holds several entries; their conditions need not be identical. Equal entries are not always repeated. Structures can show the parent of a compound that is named as a salt. Where two headings read alike, the source gives them in different places.

Key:
recombinant TDP1 = biological target: T1, recombinant TDP1 (Homo sapiens, UniProt Q9NUW8); experiment: in vitro gel-based fluorescence TDP1 catalytic assay; assay type: biochemical; conditions: 15 min, room temperature
T1 construct: incubated with 40 pM full-length recombinant TDP1 or TDP1 (148–608)
T1 sequence (Q9NUW8 whole entry): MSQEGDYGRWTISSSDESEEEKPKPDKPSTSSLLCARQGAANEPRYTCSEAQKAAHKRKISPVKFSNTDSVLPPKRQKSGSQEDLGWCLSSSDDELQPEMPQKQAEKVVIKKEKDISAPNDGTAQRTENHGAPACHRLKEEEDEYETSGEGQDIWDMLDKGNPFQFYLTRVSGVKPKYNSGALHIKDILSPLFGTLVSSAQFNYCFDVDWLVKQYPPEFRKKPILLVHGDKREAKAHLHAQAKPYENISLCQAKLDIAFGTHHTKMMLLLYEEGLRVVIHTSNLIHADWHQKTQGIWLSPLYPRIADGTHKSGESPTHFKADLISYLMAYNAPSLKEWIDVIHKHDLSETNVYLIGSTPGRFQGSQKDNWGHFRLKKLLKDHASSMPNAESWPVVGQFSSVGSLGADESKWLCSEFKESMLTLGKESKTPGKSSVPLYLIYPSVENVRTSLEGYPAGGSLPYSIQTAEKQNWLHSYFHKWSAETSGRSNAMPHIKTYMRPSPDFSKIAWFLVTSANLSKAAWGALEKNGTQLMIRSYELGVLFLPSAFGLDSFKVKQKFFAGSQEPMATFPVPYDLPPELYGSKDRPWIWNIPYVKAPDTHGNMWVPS
Procedure: We subjected select virtual screen hits to evaluation of TDP1 inhibitory potencies using in vitro gel-based fluorescence TDP1 catalytic assays (Fig. 2). […] To further explore this class of compounds, we purchased from TargetMol a library of approximately 90 β-lactams as 10 mM solutions in DMSO. […] We examined TDP1 inhibitory potencies of the compounds using the in vitro gel-based fluorescence assays as previously described[21]–[24]. Briefly, a 5’-Cy5-labeled DNA substrate (N14Y, 5’-Cy5-[…]-pY-3’, 1 nM) was incubated in TDP1 reaction buffer with recombinant TDP1 or truncated TDP1(148–608) (40 pM) in the absence or presence of inhibitors for 15 min at room temperature. […] The TDP1 inhibition IC50 values were calculated based on gel images of the cleavage product (N14P, 5’-Cy5-[…]-p-3’) (Fig. 3A and Table S2).
(§1) The inhibition of TDP1 and TDP2 were conducted according to gel-based methods as previously described[21]–[24],[45]. Briefly, 1 nM of the DNA substrate (N14Y, 5´Cy5-[…]-pY-3´) was incubated with 40 pM full-length recombinant TDP1 or TDP1 (148–608) in the absence or presence of inhibitors for 15 min at room temperature in TDP1 reaction buffer (50 mM Tris-HCl, pH 7.5, 80 mM KCl, 2 mM EDTA, 1 mM DTT, 40 µg/mL BSA and 0.01% Tween 20). The inhibition of TDP2 was also conducted by using similar conditions. […] The reactions of both TDP1 and TDP2 were stopped by adding an equal volume of gel loading buffer (99.5% (v/v) formamide, 5 mM EDTA). The samples were then subjected to a 20% denaturing PAGE gel followed by gel scanning using a Typhoon FLA 9500 scanner (GE Healthcare). The IC50 values of the TDP1 inhibitors were calculated by comparing the percentage of the cleavage product (N14P, 5´Cy5-[…]-p-3´) produced to that in the DMSO control. The IC50 values of the TDP2 inhibitors were calculated by comparing the percentage of the cleavage product (PN18, 5’-p-[…]-Cy5-3’) produced to that in the DMSO control.

recombinant TDP2 = biological target: T2, recombinant TDP2 (Homo sapiens, UniProt O95551); experiment: in vitro gel-based fluorescence TDP2 assay (counterscreen); assay type: biochemical; conditions: for IC50: 15 min, RT
T2 sequence (O95551 1-362): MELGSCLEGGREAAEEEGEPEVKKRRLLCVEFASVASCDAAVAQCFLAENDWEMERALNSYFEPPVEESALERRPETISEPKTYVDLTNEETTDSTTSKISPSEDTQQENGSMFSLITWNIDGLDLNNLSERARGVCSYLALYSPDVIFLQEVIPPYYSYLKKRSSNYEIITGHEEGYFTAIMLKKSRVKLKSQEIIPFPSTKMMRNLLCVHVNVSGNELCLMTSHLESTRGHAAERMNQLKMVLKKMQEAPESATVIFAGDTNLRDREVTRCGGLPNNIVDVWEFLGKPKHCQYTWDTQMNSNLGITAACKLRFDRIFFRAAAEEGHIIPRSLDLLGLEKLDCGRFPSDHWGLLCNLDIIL
Procedure: as §1

TDP1(148–608) [1] = biological target: T3, TDP1(148–608) (Homo sapiens, UniProt Q9NUW8); experiment: gel-based fluorescence assay with truncated TDP1 compared with full-length TDP1; assay type: biochemical
T3 construct: SPR experiments were recorded for the truncated TDP1(148–608) and the β-lactam compound
T3 sequence (Q9NUW8 148-608): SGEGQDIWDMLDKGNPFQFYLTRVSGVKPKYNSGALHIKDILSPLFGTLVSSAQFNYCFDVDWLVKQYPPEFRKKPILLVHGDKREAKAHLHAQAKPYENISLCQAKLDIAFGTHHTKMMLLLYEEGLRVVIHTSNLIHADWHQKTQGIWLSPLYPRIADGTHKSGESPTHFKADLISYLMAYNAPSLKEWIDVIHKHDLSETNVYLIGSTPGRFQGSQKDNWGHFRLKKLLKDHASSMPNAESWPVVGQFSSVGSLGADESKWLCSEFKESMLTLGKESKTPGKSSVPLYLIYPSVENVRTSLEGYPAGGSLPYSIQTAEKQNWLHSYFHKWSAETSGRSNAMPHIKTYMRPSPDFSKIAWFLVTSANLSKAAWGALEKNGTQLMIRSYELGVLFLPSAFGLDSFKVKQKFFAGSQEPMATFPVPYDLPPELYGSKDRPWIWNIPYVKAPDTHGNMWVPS
Procedure: as §1

TDP1(148–608) [2] = biological target: T3, TDP1(148–608); experiment: Surface plasmon resonance (SPR) binding analysis
From the text: A central mechanism of action of β-lactam antibiotics involves covalent modification of serine residues in PBPs. However, β-lactams are also known to covalently modify proteins more broadly[35],[42]. Mass spectroscopy has proven to be invaluable in characterizing protein modification by β-lactams[43],[44]. […] We evaluated cephalosporin C (11) in SPR studies. For SPR, we immobilized the TDP1(148–608) on an SPR chip and measured the binding of compounds as a function of concentration.
SPR experiments were recorded for the truncated TDP1(148–608) and the β-lactam compound with Biacore T200 system (GE Healthcare). Using the amine coupling kit (Cytiva), 11,000 RU of TDP1 was covalently immobilized on a CM5 chip (Cytiva) via amine coupling. The β-lactam compounds were prepared in HBS-P buffer (Cytiva). Experiments in high-performance mode was carried out using five injections (30 µL/min) of increasing concentrations of the β-lactam (50 nM – 25 µM) passed over the sensor chip for 180 s, followed by a 1200 s dissociation. Buffer and reference signals were subtracted and binding affinities (Kd) were determined using the Biacore T200 evaluation software (GE Healthcare).

[3] = test system: human colon cancer cell line HCT116; experiment: Cell viability, synergistic effect with camptothecin (CPT); assay type: cell-based
Procedure: We undertook further assays to determine whether the β-lactams could act in cells as TDP1 inhibitors.
The synergistic effects of the TDP1 inhibitors with CPT were tested in human colon cancer cell line HCT116 based on cell viability[22],[23]. Cells were first seeded in a 384-well black-clear plate until 30% confluency and then incubated with a serial dilution of CPT at the range of 0-100 nM (0, 12.5, 25, 50, 100 nM) in the present or the absence of desired concentrations of TDP1 inhibitors for 72 h at 37 °C. DMSO was used as control. Viable cell numbers were counted from the brightfield images taken by Biotek Cytation 5.

TDP1(148–608) [4] = biological target: T3, TDP1(148–608); experiment: Intact mass and PTM-mapping mass spectrometry for covalent modification; conditions: enzyme-to-compound ratios 1:125 to 1:1000
Procedure: We also digested the TDP1 following incubation with the compounds.

[5] = 40 pM recombinant TDP1, 1 nM N14Y DNA substrate, read-out: TDP1 IC50
[6] = 40 pM recombinant TDP2, 1 nM YN18 DNA substrate, read-out: TDP2 IC50
[7] = TDP1 IC50, 40 pM recombinant TDP1, 1 nM N14Y DNA substrate
[8] = TDP2 IC50, 40 pM recombinant TDP2, 1 nM YN18 DNA substrate

| Compound | IC50 (recombinant TDP1; [5]) | IC50 (recombinant TDP2; [6]) | also measured |
| --- | --- | --- | --- |
| CC(=O)OCC1=C(C(=O)O)N2C(=O)[C@@H](NC(=O)CCC[C@@H](N)C(=O)O)[C@H]2SC1 [11-Zn, Cephalosporin C Zinc salt] |  |  | IC50 (recombinant TDP1; read-out: TDP1 IC50, 40 pM recombinant TDP1, 1 nM N14Y DNA substrate): 5.3 µM; IC50 (recombinant TDP2; read-out: TDP2 IC50, 40 pM recombinant TDP2, 1 nM YN18 DNA substrate): 89.1 µM |
| CC(C)(O/N=C(\C(=O)N[C@@H]1C(=O)N2C(C(=O)[O-])=C(C[n+]3ccccc3)CS[C@H]12)c1csc(N)n1)C(=O)O [LF6, Ceftazidime] | 5.8 µM and < 100 µM | 18.9 ± 2.2 µM |  |
| CO/N=C(\C(=O)N[C@@H]1C(=O)N2C(C(=O)O)=C(COC(C)=O)CS[C@H]12)c1csc(N)n1 [LA9, Cefotaxime] |  | 81.7 ± 5.2 µM |  |
| CON=C(C(=O)NC1C(=O)N2C(C(=O)O)=C(CSC(=O)c3ccco3)CSC12)c1csc(N)n1 (centres unmarked) [LC2, Ceftiofur hydrochloride] | > 1000 µM | 80.9 ± 13.2 µM |  |
| COc1cccc2c1cc1c3c(cc4c(c32)OCO4)C(=O)N1 [LE2, Aristololactam I] | 80.6 µM and 81 µM | 70.1 µM | IC50 (recombinant TDP1; [7]): < 100 µM |
| O=C1[C@H](CC[C@H](O)c2ccc(F)cc2)[C@@H](c2ccc(O)cc2)N1c1ccc(F)cc1 [LE9, Ezetimibe] | 27.5 µM and < 100 µM and 27 µM | 52.6 µM |  |
| CC1(C)S[C@@H]2[C@H](NC(=O)Cc3ccccc3)C(=O)N2[C@H]1C(=O)O [LC5, Benzylpenicillin potassium] | > 1000 µM | 26.1 ± 3.35 µM |  |
| CC1(C)[C@H](C(=O)O)N2C(=O)C[C@H]2S1(=O)=O [LB6, Sulbactam sodium] | 84.5 µM and < 100 µM and 85 µM | 201 µM |  |
| CC1(C)S[C@@H]2[C@H](NC(=O)[C@H](N)c3ccccc3)C(=O)N2[C@H]1C(=O)O [LB9, Ampicillin sodium] | 10.3 µM and < 100 µM and 10 µM | 2.49 µM | greater potency against TDP2 than TDP1 (recombinant TDP2; ratio of gel-based IC50 values): 4 fold |
| CC(=O)OCC1=C(C(=O)O)N2C(=O)[C@@H](NC(=O)CCC[C@@H](N)C(=O)O)[C@H]2SC1 [LB2, Cephalosporin C zinc salt] |  |  | IC50 (recombinant TDP1; [7]): 5.54 µM and < 100 µM and 5.5 µM; IC50 (recombinant TDP2; [8]): 38.3 µM; greater potency against TDP1 than against TDP2 (recombinant TDP2; ratio of gel-based IC50 values): approximately 7 fold |
| CC1(C)S[C@@H]2[C@H](NC(=O)[C@H](N)c3ccccc3)C(=O)N2[C@H]1C(=O)O [LD1, Ampicillin Trihydrate] | 77.3 µM and < 100 µM and 77 µM | > 1000 µM |  |
| CC(=O)OCC1=C(C(=O)O)N2C(=O)[C@@H](NC(=O)CCC[C@@H](N)C(=O)O)[C@H]2SC1 [compound 11, cephalosporin C] |  |  | IC50 (recombinant TDP1; [7]): 4.43 µM and 4.4 µM; IC50 (recombinant TDP2; [8]): > 100 µM; loss of inhibitory potencies with only the C-terminal residues TDP1(148–608) compared with full-length TDP1 (TDP1(148–608) [1]): more than 50 fold; binding mode from SPR (compound eluted off the chip without impacting binding capacity) (TDP1(148–608) [2]): more likely bound non-covalently; Kd (TDP1(148–608) [2]; TDP1(148–608) immobilized on CM5 chip, 50 nM – 25 µM compound): 11.6 µM; effect in combination with TOP1 inhibitor CPT on cell viability ([3]; HCT116, 25 µM, CPT 0-100 nM, 72 h): acted synergistically; cytotoxicity on its own ([3]; without CPT): no cytotoxicity; covalent modification of TDP1 (intact mass analysis) (TDP1(148–608) [4]): not able to detect covalent modification of TDP1 |
| Cc1onc(-c2c(F)cccc2Cl)c1C(=O)N[C@@H]1C(=O)N2[C@@H]1SC(C)(C)[C@@H]2C(=O)O [LC11, Flucloxacillin sodium] |  | 36 ± 1.35 µM |  |
| CO/N=C(\C(=O)N[C@@H]1C(=O)N2C(C(=O)O)=CCS[C@H]12)c1csc(N)n1 [LD9, Ceftizoxime] | 10.8 µM and < 100 µM and 11 µM | 37.6 ± 7.4 µM |  |
| CCN1CCN(C(=O)N[C@@H](C(=O)N[C@@H]2C(=O)N3[C@@H]2SC(C)(C)[C@@H]3C(=O)O)c2ccccc2)C(=O)C1=O [LA2, piperacillin] | 28 µM and < 100 µM | 224 ± 26 µM |  |
| C=CC1=C(C(=O)O)N2C(=O)[C@@H](NC(=O)/C(=N\OCC(=O)O)c3csc(N)n3)[C@H]2SC1 [LH5, Cefixime] | 4 µM and < 100 µM | 69.3 ± 6 µM |  |

| Compound | IC50 (recombinant TDP1; [5]) | IC50 (recombinant TDP2; [6]) | also measured |
| --- | --- | --- | --- |
| CC1(C)S[C@@H]2[C@H](NC(=O)Cc3ccccc3)C(=O)N2[C@H]1C(=O)O [LD8, Procaine penicillin G] | 84.8 µM and < 100 µM and 85 µM | 77.4 µM |  |
| CC1(Cn2ccnn2)C(C(=O)O)N2C(=O)CC2S1(=O)=O (centres unmarked) [LF8, Tazobactam acid] | 73.8 µM and < 100 µM and 74 µM | 45.5 µM |  |
| Cc1onc(-c2ccccc2Cl)c1C(=O)N[C@@H]1C(=O)N2[C@@H]1SC(C)(C)[C@@H]2C(=O)O [LH2, Cloxacillin sodium monohydrate] | > 1000 µM |  |  |
| CC1(C)S[C@@H]2[C@H](NC(=O)[C@H](NC(=O)N3CCNC3=O)c3ccccc3)C(=O)N2[C@H]1C(=O)O [LF4, Azlocillin sodium] | > 1000 µM |  |  |
| CON=C(C(=O)NC1C(=O)N2C(C(=O)OCOC(=O)C(C)(C)C)=C(C)CSC12)c1csc(N)n1 (centres unmarked) [LB3, Cefetamet pivoxil hydrochloride] |  |  | IC50 (recombinant TDP1; [7]): > 1000 µM |
| CC1=C(C(=O)O)N2C(=O)[C@@H](NC(=O)[C@H](N)c3ccccc3)[C@H]2SC1 [LH11, Cephalexin] | > 1000 µM |  |  |
| CO/N=C(\C(=O)N[C@@H]1C(=O)N2C(C(=O)OC(C)OC(C)=O)=C(COC(N)=O)CS[C@H]12)c1ccco1 (some centres unmarked) [LF10, Cepazine] | > 1000 µM |  |  |
| CC(=O)OCC1=C(C(=O)O)N2C(=O)[C@@H](NC(=O)CSC(=NC(C)C)NC(C)C)[C@H]2SC1 [LA4, Cefathiamidine] | > 1000 µM |  |  |
| CC(=O)OCC1=C(C(=O)O)N2C(=O)[C@@H](NC(=O)Cc3cccs3)[C@H]2SC1 [LG7, Cephalothin sodium] |  | 35.2 µM |  |
| CC1(C)S[C@@H]2[C@H](NC(=O)[C@H](N)c3ccc(O)cc3)C(=O)N2[C@H]1C(=O)O [LB11, Amoxicillin Sodium] |  | 99 ± 2.15 µM |  |
| NC(=O)c1cc[n+](CC2=C(C(=O)O)N3C(=O)[C@@H](NC(=O)[C@@H](c4ccccc4)S(=O)(=O)[O-])[C@H]3SC2)cc1 [LC1, Cefsulodine sodium] | > 1000 µM |  |  |
| CO/N=C(\C(=O)N[C@@H]1C(=O)N2C(C(=O)O)=C(COC(C)=O)CS[C@H]12)c1csc(N)n1 [LA1, Cefotaxime sodium] | > 1000 µM |  |  |
| CO/N=C(\C(=O)N[C@@H]1C(=O)N2C(C(=O)O)=C(C[N+]3(C)CCCC3)CS[C@H]12)c1csc(N)n1 [LB1, Cefepime Dihydrochloride Monohydrate] | > 1000 µM |  |  |
| Cefotiam Hexetil Hydrochloride [LC9] | > 1000 µM |  |  |
| C=CC1=C(C(=O)O)N2C(=O)[C@@H](NC(=O)/C(=N\O)c3csc(N)n3)[C@H]2SC1 [LB10, Cefdinir] | > 1000 µM |  |  |
